Measured values published in PubChem BioAssay AID330 (DTP/NCI, 2004).
Several values for one entry are separate records, joined by “and”; a condition that tells them apart may be missing. Equal values may be shown once. Inconclusive results and toxic doses are left out.

Tested on: P388 leukemia ip, CD2F1 mice, survival T/C
Test: NCI In Vivo Anticancer Drug Screen. Data for tumor model P388 Leukemia (intraperitoneal) in CD2F1 (CDF1) mice
Conditions: endpoint: median survival time, higher = longer survival
Method in brief: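 Mice carrying the transplanted tumor received test compound or vehicle. Survival was recorded in each group, and the value is the treated-group measurement divided by that of the vehicle-treated control group.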

[1] = dose: 60.0 mg/kg/injection, schedule: Q01DX005 (ip), vehicle: saline
[2] = dose: 120.0 mg/kg/injection, schedule: Q01DX005 (ip), vehicle: saline
[3] = dose: 240.0 mg/kg/injection, schedule: Q01DX005 (ip), vehicle: saline
[4] = dose: 60.0 mg/kg/injection, schedule: Q01DX005 (ip), vehicle: saline with Tween-80
[5] = dose: 120.0 mg/kg/injection, schedule: Q01DX005 (ip), vehicle: saline with Tween-80
[6] = dose: 240.0 mg/kg/injection, schedule: Q01DX005 (ip), vehicle: saline with Tween-80
[7] = dose: 50.0 mg/kg/injection, schedule: Q01DX005 (ip), vehicle: saline with Tween-80
[8] = dose: 100.0 mg/kg/injection, schedule: Q01DX005 (ip), vehicle: saline with Tween-80
[9] = dose: 50.0 mg/kg/injection, schedule: Q04DX003 (ip), vehicle: saline with Tween-80
[10] = dose: 12.5 mg/kg/injection, schedule: Q01DX009 (ip), vehicle: Klucel (hydroxypropylcellulose) (HPC)
[11] = dose: 25.0 mg/kg/injection, schedule: Q01DX009 (ip), vehicle: Klucel (hydroxypropylcellulose) (HPC)
[12] = dose: 50.0 mg/kg/injection, schedule: Q01DX009 (ip), vehicle: Klucel (hydroxypropylcellulose) (HPC)
[13] = dose: 100.0 mg/kg/injection, schedule: Q01DX009 (ip), vehicle: Klucel (hydroxypropylcellulose) (HPC)
[14] = dose: 200.0 mg/kg/injection, schedule: Q01DX009 (ip), vehicle: Klucel (hydroxypropylcellulose) (HPC)
[15] = dose: 200.0 mg/kg/injection, schedule: Q01DX005 (ip), vehicle: saline with Tween-80

COC(=O)C(=O)C(C(=O)C=C(C)C)c1nc2n(c1O)C(=N)N=N2 (stereo not given)
T/C [1]: 116 % of control | T/C [2]: 107 % of control | T/C [3]: 104 % of control

COC(=O)c1nnn(-c2ccccc2C(C)C)c1C(=O)c1ccccc1
T/C [4]: 94 % of control | T/C [5]: 109 % of control | T/C [6]: 104 % of control

CCCN1CCc2c([nH]c3cc(OC)ccc23)C1C (stereo not given)
T/C [7]: 100 % of control | T/C [8]: 108 % of control

CCOC(=O)C(Cc1ccc(N(CCCl)CCCl)cc1)NP1(=O)NCCCO1 (stereo not given)
T/C (dose: 14.0 mg/kg/injection, schedule: Q04DX003 (ip), vehicle: saline with Tween-80): 186 % of control | T/C (dose: 22.0 mg/kg/injection, schedule: Q04DX003 (ip), vehicle: saline with Tween-80): 172 % of control | T/C (dose: 33.0 mg/kg/injection, schedule: Q04DX003 (ip), vehicle: saline with Tween-80): 218 % of control | T/C [9]: 240 % of control

O[C@@]12CO[C@@H](c3ccc4c(c3)OCO4)[C@@H]1CO[C@H]2c1ccc2c(c1)OCO2
T/C (dose: 25.0 mg/kg/injection, schedule: Q01DX005 (ip), vehicle: Klucel (hydroxypropylcellulose) (HPC)): 92 % of control | T/C (dose: 50.0 mg/kg/injection, schedule: Q01DX005 (ip), vehicle: Klucel (hydroxypropylcellulose) (HPC)): 90 % of control | T/C (dose: 100.0 mg/kg/injection, schedule: Q01DX005 (ip), vehicle: Klucel (hydroxypropylcellulose) (HPC)): 86 % of control | T/C (dose: 200.0 mg/kg/injection, schedule: Q01DX005 (ip), vehicle: Klucel (hydroxypropylcellulose) (HPC)): 95 % of control

CNNCc1ccc(C(=O)NC(N)=O)cc1
T/C (dose: 300.0 mg/kg/injection, schedule: Q01DX009 (ip), vehicle: saline): 170 % of control

COC1/C=C/OC2(C)Oc3c(C)c(O)c4c(O)c(c(/C=N\N(C)C56CC7CC(CC(C7)C5)C6)c(O)c4c3C2=O)NC(=O)C(C)=C/C=C/C(C)C(O)C(C)C(O)C(C)C(OC(C)=O)C1C (stereo not given)
T/C (dose: 60.0 mg/kg/injection, schedule: Q01DX005 (ip), vehicle: Klucel (hydroxypropylcellulose) (HPC)): 93 % of control | T/C (dose: 120.0 mg/kg/injection, schedule: Q01DX005 (ip), vehicle: Klucel (hydroxypropylcellulose) (HPC)): 96 % of control | T/C (dose: 240.0 mg/kg/injection, schedule: Q01DX005 (ip), vehicle: Klucel (hydroxypropylcellulose) (HPC)): 102 % of control

CC(=O)N(C)C(C(=O)N1CC(C)CC1C(=O)N(C)C1C(=O)NC(CC(C)C)C(=O)N2CC(C)CC2C(=O)NC(CC(C)C)C(=O)N(C)C(C(C)C)C(=O)N2CCCC2C(=O)N(C)C(CC(C)C)C(=O)NCC(=O)OC1C)C(C)C (stereo not given)
T/C (dose: 3.12 mg/kg/injection, schedule: Q01DX009 (ip), vehicle: Klucel (hydroxypropylcellulose) (HPC)): 103 % of control | T/C (dose: 6.25 mg/kg/injection, schedule: Q01DX009 (ip), vehicle: Klucel (hydroxypropylcellulose) (HPC)): 97 % of control | T/C [10]: 100 % of control | T/C (dose: 18.75 mg/kg/injection, schedule: Q01DX009 (ip), vehicle: Klucel (hydroxypropylcellulose) (HPC)): 93 % of control | T/C [11]: 93 % of control

CC1=C(C)CN(CCC(=O)O)C(C(N)=O)C1 (stereo not given)
T/C (dose: 50.0 mg/kg/injection, schedule: Q01DX005 (ip), vehicle: saline): 100 % of control | T/C (dose: 100.0 mg/kg/injection, schedule: Q01DX005 (ip), vehicle: saline): 107 % of control | T/C (dose: 200.0 mg/kg/injection, schedule: Q01DX005 (ip), vehicle: saline): 100 % of control

Cc1nnn(NC(=O)Cc2ccccc2)c1C
T/C (dose: 100.0 mg/kg/injection, schedule: Q01DX001 (ip), vehicle: Klucel (hydroxypropylcellulose) (HPC)): 98 % of control | T/C (dose: 200.0 mg/kg/injection, schedule: Q01DX001 (ip), vehicle: Klucel (hydroxypropylcellulose) (HPC)): 99 % of control | T/C (dose: 400.0 mg/kg/injection, schedule: Q01DX001 (ip), vehicle: Klucel (hydroxypropylcellulose) (HPC)): 99 % of control

O=C(NC(=O)C(F)(F)C(F)(F)F)Nc1ccc(Cl)cc1
T/C [12]: 115 % of control | T/C [13]: 98 % of control | T/C [14]: 101 % of control

COc1ccc(CN2CCCN(Cc3ccc(OC)cc3)C2c2cc3ccccc3c3ccccc23)cc1
T/C [7]: 99 % of control | T/C [8]: 99 % of control | T/C [15]: 101 % of control

C[C@]12CCCC[C@@H]1CC[C@@H]1[C@@H]2CC[C@]2(C)[C@@H](N(CCO)CCCO)CC[C@@H]12
T/C [10]: 93 % of control | T/C [11]: 99 % of control | T/C [12]: 88 % of control

COc1cc(OC)c2c(=O)c3cc(OC)c(OC)cc3oc2c1
T/C (dose: 8.3 mg/kg/injection, schedule: Q01DX009 (ip), vehicle: Klucel (hydroxypropylcellulose) (HPC)): 98 % of control | T/C (dose: 16.5 mg/kg/injection, schedule: Q01DX009 (ip), vehicle: Klucel (hydroxypropylcellulose) (HPC)): 117 % of control | T/C (dose: 33.0 mg/kg/injection, schedule: Q01DX009 (ip), vehicle: Klucel (hydroxypropylcellulose) (HPC)): 107 % of control | T/C (dose: 66.0 mg/kg/injection, schedule: Q01DX009 (ip), vehicle: Klucel (hydroxypropylcellulose) (HPC)): 107 % of control

O=C(O)CCc1ccc(O)c(O)c1
T/C (dose: 50.0 mg/kg/injection, schedule: Q01DX009 (ip), vehicle: saline): 102 % of control and 111 % of control | T/C (dose: 100.0 mg/kg/injection, schedule: Q01DX009 (ip), vehicle: saline): 100 % of control and 111 % of control | T/C (dose: 200.0 mg/kg/injection, schedule: Q01DX009 (ip), vehicle: saline): 108 % of control and 110 % of control | T/C (dose: 400.0 mg/kg/injection, schedule: Q01DX009 (ip), vehicle: saline): 111 % of control and 115 % of control

N#Cc1ccc(NC(=O)CCCC(=O)Nc2ccc(C#N)c(C#N)c2)cc1C#N
T/C [12]: 97 % of control | T/C [13]: 94 % of control | T/C [14]: 96 % of control

O=c1c2ccccc2c2ccccc2n1O
T/C (dose: 25.0 mg/kg/injection, schedule: Q04DX003 (ip), vehicle: saline with Tween-80): 99 % of control | T/C [9]: 99 % of control | T/C (dose: 100.0 mg/kg/injection, schedule: Q04DX003 (ip), vehicle: saline with Tween-80): 97 % of control | T/C (dose: 200.0 mg/kg/injection, schedule: Q04DX003 (ip), vehicle: saline with Tween-80): 97 % of control

CC1=C2CC/C(C)=C/CCC3(C)OC3CC/C(C)=C/C2OC1=O (stereo not given)
T/C (dose: 1.25 mg/kg/injection, schedule: Q01DX009 (ip), vehicle: other): 118 % of control | T/C (dose: 2.0 mg/kg/injection, schedule: Q01DX009 (ip), vehicle: Klucel (hydroxypropylcellulose) (HPC)): 91 % of control | T/C (dose: 2.5 mg/kg/injection, schedule: Q01DX009 (ip), vehicle: other): 105 % of control | T/C (dose: 4.0 mg/kg/injection, schedule: Q01DX009 (ip), vehicle: Klucel (hydroxypropylcellulose) (HPC)): 89 % of control | T/C (dose: 5.0 mg/kg/injection, schedule: Q01DX009 (ip), vehicle: other): 112 % of control | T/C (dose: 10.0 mg/kg/injection, schedule: Q01DX009 (ip), vehicle: saline with Tween-80): 92 % of control | T/C (dose: 16.0 mg/kg/injection, schedule: Q01DX009 (ip), vehicle: Klucel (hydroxypropylcellulose) (HPC)): 94 % of control | T/C (dose: 20.0 mg/kg/injection, schedule: Q01DX009 (ip), vehicle: saline with Tween-80): 89 % of control | T/C (dose: 32.0 mg/kg/injection, schedule: Q01DX009 (ip), vehicle: Klucel (hydroxypropylcellulose) (HPC)): 94 % of control | T/C (dose: 40.0 mg/kg/injection, schedule: Q01DX009 (ip), vehicle: saline with Tween-80): 108 % of control

O=[N+]([O-])c1ccc(/C=C/C(CCN2CCOCC2)=N/O)cc1
T/C [4]: 104 % of control | T/C [5]: 99 % of control | T/C [6]: 103 % of control

CCC(C)c1ccc(S(=O)(=O)Nc2cc(Cl)c([N+](=O)[O-])cc2O)cc1 (stereo not given)
T/C [12]: 104 % of control | T/C [13]: 100 % of control | T/C [14]: 102 % of control

O=c1[nH]cnc2ccc3[nH]ncc3c12
T/C [7]: 92 % of control | T/C [8]: 94 % of control | T/C [15]: 105 % of control

CCc1c2cc3c(cc2cc2c4cc5c(cc4cc[n+]12)OCO5)OCO3 (tested in a mixture with another compound)
T/C (dose: 0.5 mg/kg/injection, schedule: Q01DX009 (ip), vehicle: Klucel (hydroxypropylcellulose) (HPC)): 117 % of control | T/C (dose: 1.0 mg/kg/injection, schedule: Q01DX009 (ip), vehicle: Klucel (hydroxypropylcellulose) (HPC)): 121 % of control | T/C (dose: 5.0 mg/kg/injection, schedule: Q01DX009 (ip), vehicle: Klucel (hydroxypropylcellulose) (HPC)): 153 % of control and 174 % of control

COC(CC(C)(O)C(F)(F)F)OC (stereo not given)
T/C [1]: 103 % of control | T/C [2]: 112 % of control | T/C [3]: 110 % of control
